Data published in US9365522B2, “Pyrazole amide derivative” (AMGEN INC., priority 2015, dated 2016).

Target: T1, ligand binding domain of human ROR gamma (Homo sapiens, UniProt P51449)
T1 construct: NM_001001523; expressed in transfected cells; host or cells: HEK293T
T1 sequence (P51449 247-497 isoform P51449-2): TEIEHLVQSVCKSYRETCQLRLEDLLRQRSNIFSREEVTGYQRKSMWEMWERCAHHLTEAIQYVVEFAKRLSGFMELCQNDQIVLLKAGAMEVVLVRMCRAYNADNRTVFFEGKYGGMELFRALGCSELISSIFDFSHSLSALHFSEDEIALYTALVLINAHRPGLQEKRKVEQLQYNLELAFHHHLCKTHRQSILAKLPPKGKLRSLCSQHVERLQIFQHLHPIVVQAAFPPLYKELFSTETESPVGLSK
Experiment: ROR gamma reporter gene assay (GAL4-RORγ LBD luciferase, Dual-Glo)
Format: cell-based
Conditions: HEK293T cells transfected with pM-ROR gamma, 8 concentrations 3.5 nM to 10.5 μM, 24 h incubation; read-out: result (pIC50, inhibition of RORγ transcriptional activity) (converted)
Procedure, shortened: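 HEK293T cells co-transfected with GAL4-DBD fused to human RORγ LBD (aa 247-497), 5×UAS firefly luciferase reporter and CMV-renilla, in charcoal-stripped serum.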

IC50	Structure (SMILES)
102000 pM	CC(C)(C)[C@@H]1C[C@H]1N(CC(=O)c1c(Cl)cncc1Cl)C(=O)c1cnn([C@H]2CC[C@](C)(C(=O)O)CC2)c1C(F)(F)F [Example 331, trans-4-(4-(((1R,2S)-2-tert-butylcyclopropyl)-(2-(3,5-dichloropyridin-4-yl)-2-oxoethyl)carbamoyl)-5-(trifluoromethyl)pyrazol-1-yl)-1-methylcyclohexane-1-carboxylic acid]
513000 pM	CC(COC(C)(C)C)N(CC(=O)c1c(Cl)cncc1Cl)C(=O)c1cnn([C@H]2CC[C@](C)(C(=O)O)CC2)c1C(F)(F)F (stereo partly drawn) [Example 332, trans-4-(4-((2-(3,5-dichloropyridin-4-yl)-2-oxoethyl)-(1-((2-methylpropan-2-yl)oxy)propan-2-yl)carbamoyl)-5-(trifluoromethyl)pyrazol-1-yl)-1-methylcyclohexane-1-carboxylic acid]
17000 pM	CC1(C)[C@@H]2C[C@H](N(CC(=O)c3c(F)cncc3Cl)C(=O)c3cnn([C@H]4CC[C@](C)(C(=O)O)CC4)c3C(F)(F)F)C[C@@H]21 [Example 333, trans-4-(4-((2-(3-chloro-5-fluoropyridin-4-yl)-2-oxoethyl)((1R,3r,5S)-6,6-dimethylbicyclo[3.1.0]hexan-3-yl)carbamoyl)-5-(trifluoromethyl)-1H-pyrazol-1-yl)-1-methylcyclohexanecarboxylic acid]
56200 pM	CC(C)(C)CN(CCc1c[nH]c2cccc(Cl)c12)C(=O)c1cnn([C@H]2CC[C@](C)(C(=O)O)CC2)c1C(F)(F)F [Example 334, trans-4-(4-(2-(4-chloro-1H-indol-3-yl)ethyl-(2,2-dimethylpropyl)carbamoyl)-5-(trifluoromethyl)pyrazol-1-yl)-1-methylcyclohexane-1-carboxylic acid]
12300 pM	CC1(C)[C@@H]2C[C@H](N(CC(=O)c3c(F)cncc3Cl)C(=O)c3cnn(C45CCC(C(=O)O)(CC4)CC5)c3C(F)(F)F)C[C@@H]21 [Example 335, 4-(4-((2-(3-chloro-5-fluoropyridin-4-yl)-2-oxoethyl)((1R,3r,5S)-6,6-dimethylbicyclo[3.1.0]hexan-3-yl)carbamoyl)-5-(trifluoromethyl)-1H-pyrazol-1-yl)bicyclo(2.2.2)octane-1-carboxylic acid]
145000 pM	COc1cccc(Cl)c1C(O)CN(C(=O)c1cnn([C@H]2CC[C@](C)(C(=O)O)CC2)c1C(F)(F)F)C1CCC(C)(C)CC1 (stereo partly drawn) [Example 336, trans-4-(4-((2-(2-chloro-6-methoxyphenyl)-2-hydroxyethyl)-(4,4-dimethylcyclohexyl)carbamoyl)-5-(trifluoromethyl)pyrazol-1-yl)-1-methylcyclohexane-1-carboxylic acid]
83200 pM	CC1(C)CCC(N(CC(=O)c2c(Cl)cc(F)cc2Cl)C(=O)c2cnn([C@H]3C[C@](C)(C(=O)O)C3)c2C(F)(F)F)CC1 [Example 339, trans-3-(4-((2-(2,6-dichloro-4-fluorophenyl)-2-oxoethyl)-(4,4-dimethylcyclohexyl)carbamoyl)-5-(trifluoromethyl)pyrazol-1-yl)-1-methylcyclobutane-1-carboxylic acid]
123000 pM	CC(C)[C@@H]1C[C@@H]1N(CC(=O)c1c(Cl)cncc1Cl)C(=O)c1cnn([C@H]2CC[C@](C)(C(=O)O)CC2)c1C(F)(F)F [Example 340, trans-4-(4-((2-(3,5-dichloropyridin-4-yl)-2-oxoethyl)-((1S,2S)-2-propan-2-ylcyclopropyl)carbamoyl)-5-(trifluoromethyl)pyrazol-1-yl)-1-methylcyclohexane-1-carboxylic acid]
759000 pM	COc1cccc(Cl)c1[C@@H](O)CN(C(=O)c1cnn([C@H]2CC[C@](C)(C(=O)O)CC2)c1C(F)(F)F)[C@H]1C[C@@H]2[C@H](C1)C2(C)C [Example 341, trans-4-(4-((2-(2-chloro-6-methoxyphenyl)-2-hydroxyethyl)((1R,3r,5S)-6,6-dimethylbicyclo[3.1.0]hexan-3-yl)carbamoyl)-5-(trifluoromethyl)-1H-pyrazol-1-yl)-1-methylcyclohexanecarboxylic acid]
45700 pM	COc1cccc(Cl)c1[C@H](O)CN(C(=O)c1cnn([C@H]2CC[C@](C)(C(=O)O)CC2)c1C(F)(F)F)[C@H]1C[C@@H]2[C@H](C1)C2(C)C [Example 342, trans-4-(4-((2-(2-chloro-6-methoxyphenyl)-2-hydroxyethyl)((1R,3r,5S)-6,6-dimethylbicyclo[3.1.0]hexan-3-yl)carbamoyl)-5-(trifluoromethyl)-1H-pyrazol-1-yl)-1-methylcyclohexanecarboxylic acid]
31600 pM	CC1(C)[C@@H]2C[C@H](N(CCc3c[nH]c4cccc(Cl)c34)C(=O)c3cnn([C@H]4CC[C@](C)(C(=O)O)CC4)c3C(F)(F)F)C[C@@H]21 [Example 343, trans-4-(4-((2-(4-chloro-1H-indol-3-yl)ethyl)((1R,3r,5S)-6,6-dimethylbicyclo[3.1.0]hexan-3-yl)carbamoyl)-5-(trifluoromethyl)-1H-pyrazol-1-yl)-1-methylcyclohex anecarboxylic acid]
1.58e+06 pM	CC(C)(C)OC1CC(CN(CC(=O)c2c(Cl)cncc2Cl)C(=O)c2cnn([C@H]3CC[C@](C)(C(=O)O)CC3)c2C(F)(F)F)C1 (stereo partly drawn) [Example 344, trans-4-(4-((2-(3,5-dichloropyridin-4-yl)-2-oxoethyl)-((3-((2-methylpropan-2-yl)oxy)cyclobutyl)methyl)carbamoyl)-5-(trifluoromethyl)pyrazol-1-yl)-1-methylcyclohexane-1-carboxylic acid]
26300 pM	CC1(C)CCC(N(CC(=O)c2c(Cl)cc(F)cc2Cl)C(=O)c2cnn([C@H]3CC[C@](C)(C(=O)O)CC3)c2Cl)CC1 [Example 345, trans-4-(5-chloro-4-((2-(2,6-dichloro-4-fluorophenyl)-2-oxoethyl)-(4,4-dimethylcyclohexyl)carbamoyl)pyrazol-1-yl)-1-methylcyclohexane-1-carboxylic acid]
110000 pM	CC(C)[C@H]1C[C@@H]1N(CC(=O)c1c(Cl)cncc1Cl)C(=O)c1cnn([C@H]2CC[C@](C)(C(=O)O)CC2)c1C(F)(F)F [Example 346, trans-4-(4-((2-(3,5-dichloropyridin-4-yl)-2-oxoethyl)-((1S,2R)-2-propan-2-ylcyclopropyl)carbamoyl)-5-(trifluoromethyl)pyrazol-1-yl)-1-methylcyclohexane-1-carboxylic acid]
871000 pM	CC(C)c1c(C(=O)N(CC(=O)c2c(Cl)cc(F)cc2Cl)C2CCC(C)(C)CC2)cnn1[C@H]1CC[C@](C)(C(=O)O)CC1 [Example 347, trans-4-(4-((2-(2,6-dichloro-4-fluorophenyl)-2-oxoethyl)-(4,4-dimethylcyclohexyl)carbamoyl)-5-propan-2-ylpyrazol-1-yl)-1-methylcyclohexane-1-carboxylic acid]
155000 pM	CC(C)(C)SCCN(CC(=O)c1c(Cl)cc(F)cc1Cl)C(=O)c1cnn([C@H]2CC[C@](C)(C(=O)O)CC2)c1C(F)(F)F [Example 348, trans-4-(4-(2-tert-butylsulfanylethyl-(2-(2,6-dichloro-4-fluorophenyl)-2-oxoethyl)carbamoyl)-5-(trifluoromethyl)pyrazol-1-yl)-1-methylcyclohexane-1-carboxylic acid]
79400 pM	CC1(C)CCC(N(CCc2c[nH]c3cccc(Cl)c23)C(=O)c2cnn([C@H]3CC[C@](C)(C(=O)O)CC3)c2C(F)(F)F)CC1 [Example 349, trans-4-(4-(2-(4-chloro-1H-indol-3-yl)ethyl-(4,4-dimethylcyclohexyl)carbamoyl)-5-(trifluoromethyl)pyrazol-1-yl)-1-methylcyclohexane-1-carboxylic acid]
1.15e+06 pM	CC(C)(C)S(=O)(=O)CCN(CC(=O)c1c(Cl)cc(F)cc1Cl)C(=O)c1cnn([C@H]2CC[C@](C)(C(=O)O)CC2)c1C(F)(F)F [Example 350, trans-4-(4-(2-tert-butylsulfonylethyl-(2-(2,6-dichloro-4-fluorophenyl)-2-oxoethyl)carbamoyl)-5-(trifluoromethyl)pyrazol-1-yl)-1-methylcyclohexane-1-carboxylic acid]
7.24e+06 pM	CC(C)(C)[S+]([O-])CCN(CC(=O)c1c(Cl)cc(F)cc1Cl)C(=O)c1cnn([C@H]2CC[C@](C)(C(=O)O)CC2)c1C(F)(F)F (stereo partly drawn) [Example 351, trans-4-(4-(2-tert-butylsulfinylethyl-(2-(2,6-dichloro-4-fluorophenyl)-2-oxoethyl)carbamoyl)-5-(trifluoromethyl)pyrazol-1-yl)-1-methylcyclohexane-1-carboxylic acid]
4.07e+06 pM	CC(C)(C)CN(CC(=O)c1c[nH]c2cccc(Cl)c12)C(=O)c1cnn([C@H]2CC[C@](C)(C(=O)O)CC2)c1C(F)(F)F [Example 352, trans-4-(4-((2-(4-chloro-1H-indol-3-yl)-2-oxoethyl)-(2,2-dimethylpropyl)carbamoyl)-5-(trifluoromethyl)pyrazol-1-yl)-1-methylcyclohexane-1-carboxylic acid]
178000 pM	C[C@]1(C(=O)O)CC[C@H](n2ncc(C(=O)N(CCN3CCCC(F)C3)CC(=O)c3c(Cl)cc(F)cc3Cl)c2C(F)(F)F)CC1 (stereo partly drawn) [Example 353, trans-4-(4-((2-(2,6-dichloro-4-fluorophenyl)-2-oxoethyl)-(2-(3-fluoropiperidin-1-yl)ethyl)carbamoyl)-5-(trifluoromethyl)pyrazol-1-yl)-1-methylcyclohexane-1-carboxylic acid]
